According to US5424328A, “Phenyl-imidazolidinone derivatives” (Farmitalia Carlo Erba S.r.l., priority 1992, dated 1995):
pIC50: −log10 of the molar value.

Legend:
5HT3 receptor = target: T1, 5HT3 receptor (Rattus norvegicus, UniProt P35563); assay: Inhibition of the von Bezold-Jarisch chemoreflex evoked by 5-HT in the anesthetized rat (in vivo 5HT3 antagonist activity); details: 5-HT 20 ug/kg i.v.; for % inhibition of the Bezold-Jarisch reflex: mean ± S.E.M., 6 animals, * p < 0.01 vs controls; for ED50: iv, read-out: ED50 (limits)
T1 construct: in the anesthetized rat; from tissue; host or cells: whole anesthetized rat (in vivo); endogenous receptor
T1 sequence (P35563 24-483): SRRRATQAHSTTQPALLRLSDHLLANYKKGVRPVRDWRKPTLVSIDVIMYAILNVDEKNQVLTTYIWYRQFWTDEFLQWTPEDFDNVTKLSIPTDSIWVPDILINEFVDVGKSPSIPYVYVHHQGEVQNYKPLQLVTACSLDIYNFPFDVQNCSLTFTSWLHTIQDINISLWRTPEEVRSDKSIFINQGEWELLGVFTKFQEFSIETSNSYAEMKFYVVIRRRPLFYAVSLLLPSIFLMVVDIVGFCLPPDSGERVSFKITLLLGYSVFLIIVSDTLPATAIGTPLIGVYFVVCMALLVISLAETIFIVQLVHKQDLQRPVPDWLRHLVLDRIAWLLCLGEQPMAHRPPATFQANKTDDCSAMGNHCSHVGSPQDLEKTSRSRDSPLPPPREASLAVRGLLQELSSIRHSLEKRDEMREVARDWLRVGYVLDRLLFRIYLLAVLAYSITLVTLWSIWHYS
Protocol: Pharmacol. 326, 36-44 (1984).
The following Table I reports the in vivo 5HT3 antagonist activity data obtained in this test for a representative group of compounds of the invention.
Inhibition of the Bezold-Jarisch reflex elicited by 5-HT
(20 ug/kg i.v.) by i.v. FCE-compounds in the anesthetized
Values are mean ± S.E.M. from 6 animals.
*p < 0.01 vs controls (Dunnett's test).

[1] = target: T2, serotonin 5-HT3 receptors (Rattus norvegicus, UniProt P35563); assay: Affinity for serotonin 5-HT3 receptors in rat entorhinal cortex, radioligand 3H-BRL 43694 binding
T2 construct: in rat entorhinal cortex; from tissue; host or cells: rat entorhinal cortex
T2 sequence (P35563 24-483): T1 sequence (P35563 24-483)
Protocol: The affinity for serotonin 5-HT3 receptors was assessed for instance in rat entorhinal cortex using a selective radioligand 3H-BRL 43694 as described by Nelson and Thomas (1989).
NELSON D. R. and THOMAS D. R., [3H]-BRL 43694 (Granisetron), a specific ligand for 5-HT3 binding sites in rat brain cortical membranes, Biochem. Pharmac., 38, 1693-1695, 1989. The affinity data for a representative group of compounds of the invention are set out in following Table II.

| SMILES | % inhibition of the Bezold-Jarisch reflex (5HT3 receptor; dose 1 μg/kg i.v.) [%] | % inhibition of the Bezold-Jarisch reflex (5HT3 receptor; dose 3 μg/kg i.v.) [%] | % inhibition of the Bezold-Jarisch reflex (5HT3 receptor; dose 10 μg/kg i.v.) [%] | ED50 (5HT3 receptor) [µg/kg] | pIC50 [1] | % inhibition of the Bezold-Jarisch reflex (5HT3 receptor; dose 30 μg/kg i.v.) [%] | % inhibition of the Bezold-Jarisch reflex (5HT3 receptor; dose 0.5 μg/kg i.v.) [%] | % inhibition of the Bezold-Jarisch reflex (5HT3 receptor; dose 2 μg/kg i.v.) [%] | % inhibition of the Bezold-Jarisch reflex (5HT3 receptor; dose 8 μg/kg i.v.) [%] | % inhibition of the Bezold-Jarisch reflex (5HT3 receptor; dose 100 μg/kg i.v.) [%] |
| --- | --- | --- | --- | --- | --- | --- | --- | --- | --- | --- |
| Cc1[nH]cnc1CN1CCN(c2cccc(Cl)c2)C1=O [FCE 27733, 1-(5-methyl-1H-imidazol-4-yl)methyl-3-(3-chlorophenyl)-imidazolidin-2-one] | 7.0 ± 6.0 | 37.8 ± 5.8 | 89.7 ± 1.8 | 5.26 | 8.68 | – | – | – | – | – |
| Cc1[nH]cnc1CN1CCN(c2cccc(Br)c2)C1=O [FCE 28159, 1-(5-methyl-1H-imidazol-4-yl)methyl-3-(3-bromophenyl)-imidazolidin-2-one] | – | 30.0 ± 5.9 | 64.2 ± 5.0 | 6.5 | 8.57 | 84.4 ± 4.2 | – | – | – | – |
| Cc1[nH]cnc1CN1CCN(c2cc(Cl)cc(Cl)c2)C1=O [FCE 28232, 1-(5-methyl-1H-imidazol-4-yl)methyl-3-(3,5-dichlorophenyl)-imidazolidin-2-one] | 18.2 ± 2.4 | – | – | 2.2 | 9.38 | – | 1.5 ± 4.8 | 55.5 ± 7.1 | 88.7 ± 1.8 | – |
| Cc1[nH]cnc1CN1CCN(c2cccc(C#N)c2)C1=O [FCE 28276, 1-(5-methyl-1H-imidazol-4-yl)methyl-3-(3-cyanophenyl)-imidazolidin-2-one] | – | – | 14.3 ± 9.2 | 32.2 | 7.96 | 44.5 ± 7.3 | – | – | – | 87.7 ± 7.0 |
| Cc1[nH]cnc1CN1CCN(c2ccccc2)C1=O [FCE 28277, 1-(5-methyl-1H-imidazol-4-yl)methyl-3-phenyl-imidazolidin-2-one] | 14.7 ± 3.8 | 37.4 ± 6.5 | 79.4 ± 4.1 | 3.9 | 7.85 | – | – | – | – | – |
| CSc1cccc(N2CCN(Cc3nc[nH]c3C)C2=O)c1 [FCE 28278, 1-(5-methyl-1H-imidazol-4-yl)methyl-3-(3-methylthiophenyl)-imidazolidin-2-one] | – | – | 16.8 ± 8.1 | 28.6 | 8.17 | 54.7 ± 2.3 | – | – | – | 85.8 ± 1.2 |
| O=C1N(Cc2c[nH]cn2)CCN1c1ccccc1 [FCE 28307, 1-(1H-imidazol-4-yl)methyl-3-phenyl-imidazolidin-2-one] | – | – | – | – | 7.36 | – | – | – | – | 56.1 ± 10.3 |
| Cc1cccc(N2CCN(Cc3nc[nH]c3C)C2=O)c1 [FCE 28355, 1-(5-methyl-1H-imidazol-4-yl)methyl-3-(3-methylphenyl)-imidazolidin-2-one] | 14.6 ± 7.3 | 51.1 ± 4.3 | 83.3 ± 3.5 | 3.1 | 8.40 | – | – | – | – | – |
| Cc1cc(C)cc(N2CCN(Cc3nc[nH]c3C)C2=O)c1 [FCE 28356, 1-(5-methyl-1H-imidazol-4-yl)methyl-3-(3,5-dimethylphenyl)-imidazolidin-2-one] | – | – | – | – | 8.74 | – | – | – | – | 88.6 ± 2.4 |
